Measurements published in ChEMBL document CHEMBL4433269, “Design, synthesis and evaluation of biphenyl imidazole analogues as potent antifungal agents” (Bioorg Med Chem Lett, 2019).

Experiments:
[1] = system: Candida tropicalis; assay: Antifungal activity against Candida tropicalis cgmcc 2.3739 assessed as inhibition of visible microbe growth by broth microdilution method; format: functional
[2] = system: Cryptococcus neoformans; assay: Antifungal activity against Cryptococcus neoformans cgmcc 2.3161 assessed as inhibition of visible microbe growth by broth microdilution method; format: functional
[3] = system: Aspergillus fumigatus; assay: Antifungal activity against Aspergillus fumigatus cgmcc 3.7795 assessed as inhibition of visible microbe growth by broth microdilution method; format: functional
[4] = system: Candida albicans; assay: Antifungal activity against Candida albicans CPCC 400523 assessed as inhibition of visible microbe growth by broth microdilution method; format: functional
[5] = system: Candida albicans; assay: Antifungal activity against Candida albicans ATCC SC5314 assessed as inhibition of visible microbe growth by broth microdilution method; format: functional
[6] = target: Cytochrome P450 2C9 (Homo sapiens, UniProt P11712); assay: Inhibition of CYP2C9 in human liver microsomes using diclofenac pre-incubated for 10 mins before NADPH addition and measured after 10 mins by LC/MS/MS analysis; format: ADME
Cytochrome P450 2C9, sequence (P11712 whole entry): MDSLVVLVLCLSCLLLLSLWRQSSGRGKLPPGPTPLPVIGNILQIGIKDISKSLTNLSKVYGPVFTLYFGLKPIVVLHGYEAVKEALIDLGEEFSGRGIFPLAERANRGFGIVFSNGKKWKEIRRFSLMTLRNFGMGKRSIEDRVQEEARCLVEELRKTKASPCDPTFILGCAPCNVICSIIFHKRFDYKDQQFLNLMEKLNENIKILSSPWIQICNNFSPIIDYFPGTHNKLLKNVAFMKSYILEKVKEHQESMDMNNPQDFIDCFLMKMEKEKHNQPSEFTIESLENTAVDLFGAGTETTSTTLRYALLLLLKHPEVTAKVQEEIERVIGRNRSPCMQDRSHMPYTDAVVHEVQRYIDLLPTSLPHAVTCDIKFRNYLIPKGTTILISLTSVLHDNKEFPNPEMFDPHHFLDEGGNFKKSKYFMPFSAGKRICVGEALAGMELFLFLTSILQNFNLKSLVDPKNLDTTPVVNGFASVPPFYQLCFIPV

[7] = target: Cytochrome P450 3A4 (Homo sapiens, UniProt P08684); assay: Inhibition of CYP3A4 in human liver microsomes using midazolam pre-incubated for 10 mins before NADPH addition and measured after 10 mins by LC/MS/MS analysis; format: ADME
Cytochrome P450 3A4, sequence (P08684 whole entry): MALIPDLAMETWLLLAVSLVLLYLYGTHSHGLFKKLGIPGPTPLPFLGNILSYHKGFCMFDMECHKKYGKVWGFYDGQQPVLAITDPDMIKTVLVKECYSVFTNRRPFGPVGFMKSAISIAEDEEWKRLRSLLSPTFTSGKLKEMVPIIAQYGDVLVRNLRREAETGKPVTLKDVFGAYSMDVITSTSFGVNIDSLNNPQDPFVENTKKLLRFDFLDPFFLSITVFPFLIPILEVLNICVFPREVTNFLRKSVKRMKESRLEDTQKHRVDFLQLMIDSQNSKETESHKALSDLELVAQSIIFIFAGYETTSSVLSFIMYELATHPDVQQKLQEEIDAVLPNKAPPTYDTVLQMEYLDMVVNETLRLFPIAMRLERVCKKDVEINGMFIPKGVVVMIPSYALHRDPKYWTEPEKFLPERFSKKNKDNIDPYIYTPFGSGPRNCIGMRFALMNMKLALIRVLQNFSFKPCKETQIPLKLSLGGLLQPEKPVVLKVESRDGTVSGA

[8] = system: U-87 MG; assay: Cytotoxicity in human U87 cells assessed as reduction in cell viability incubated for 24 hrs by MTT assay; format: cell-based, U-87MG ATCC
[9] = target: Cytochrome P450 2D6 (Homo sapiens, UniProt P10635); assay: Inhibition of CYP2D6 in human liver microsomes using dextromethorphan pre-incubated for 10 mins before NADPH addition and measured after 10 mins by LC/MS/MS analysis; format: ADME
Cytochrome P450 2D6, sequence (P10635 whole entry): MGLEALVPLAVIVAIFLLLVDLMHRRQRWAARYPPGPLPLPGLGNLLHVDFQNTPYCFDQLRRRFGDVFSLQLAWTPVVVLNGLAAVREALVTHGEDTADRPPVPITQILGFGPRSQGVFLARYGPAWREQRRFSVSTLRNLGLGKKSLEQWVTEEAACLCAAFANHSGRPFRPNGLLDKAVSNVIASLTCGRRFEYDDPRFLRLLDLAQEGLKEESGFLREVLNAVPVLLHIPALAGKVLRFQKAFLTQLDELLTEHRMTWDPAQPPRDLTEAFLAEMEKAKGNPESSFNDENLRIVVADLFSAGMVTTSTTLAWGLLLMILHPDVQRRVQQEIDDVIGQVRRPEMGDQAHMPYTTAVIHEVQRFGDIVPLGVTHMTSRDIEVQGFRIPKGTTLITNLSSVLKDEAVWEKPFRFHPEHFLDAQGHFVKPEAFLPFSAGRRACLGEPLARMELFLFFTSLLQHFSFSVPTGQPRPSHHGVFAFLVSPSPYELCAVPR

[10] = system: Candida albicans; assay: Antifungal activity against fluconazole-resistant Candida albicans 100 assessed as inhibition of visible microbe growth by broth microdilution method; format: functional
[11] = target: Cytochrome P450 2C19 (Homo sapiens, UniProt P33261); assay: Inhibition of CYP2C19 in human liver microsomes using S-mephenytoin pre-incubated for 10 mins before NADPH addition and measured after 10 mins by LC/MS/MS analysis; format: ADME
Cytochrome P450 2C19, sequence (P33261 whole entry): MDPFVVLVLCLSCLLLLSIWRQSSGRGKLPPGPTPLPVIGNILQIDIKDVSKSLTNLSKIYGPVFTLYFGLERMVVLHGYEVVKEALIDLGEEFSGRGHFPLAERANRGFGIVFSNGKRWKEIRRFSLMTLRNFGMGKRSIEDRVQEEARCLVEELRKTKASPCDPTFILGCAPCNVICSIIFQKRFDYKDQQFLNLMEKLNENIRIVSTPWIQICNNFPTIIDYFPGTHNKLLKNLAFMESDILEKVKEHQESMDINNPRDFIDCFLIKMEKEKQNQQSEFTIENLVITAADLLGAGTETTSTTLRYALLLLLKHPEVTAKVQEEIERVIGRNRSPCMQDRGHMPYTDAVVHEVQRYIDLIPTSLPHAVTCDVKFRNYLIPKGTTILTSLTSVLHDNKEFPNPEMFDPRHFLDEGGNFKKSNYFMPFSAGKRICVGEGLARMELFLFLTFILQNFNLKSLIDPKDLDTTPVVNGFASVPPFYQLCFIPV

[12] = target: T1, Cytochrome P450 1A2 (Homo sapiens, UniProt P05177); assay: Inhibition of CYP1A2 in human liver microsomes using phenacetin pre-incubated for 10 mins before NADPH addition and measured after 10 mins by LC/MS/MS analysis; format: ADME
T1 sequence (P05177 whole entry): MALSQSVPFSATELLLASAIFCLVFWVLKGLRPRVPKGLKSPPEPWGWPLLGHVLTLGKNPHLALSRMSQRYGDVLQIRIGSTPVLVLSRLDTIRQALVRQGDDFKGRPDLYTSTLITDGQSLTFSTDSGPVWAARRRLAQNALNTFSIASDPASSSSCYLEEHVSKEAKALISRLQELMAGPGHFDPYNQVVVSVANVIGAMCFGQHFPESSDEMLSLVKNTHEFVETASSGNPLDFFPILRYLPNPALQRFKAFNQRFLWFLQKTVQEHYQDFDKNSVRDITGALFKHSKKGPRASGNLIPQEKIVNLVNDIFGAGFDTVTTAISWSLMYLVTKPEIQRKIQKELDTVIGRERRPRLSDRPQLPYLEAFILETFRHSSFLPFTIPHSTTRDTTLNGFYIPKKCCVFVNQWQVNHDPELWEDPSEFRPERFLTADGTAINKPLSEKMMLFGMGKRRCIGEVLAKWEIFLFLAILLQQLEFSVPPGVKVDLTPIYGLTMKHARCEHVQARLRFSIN

[13] = system: Candida albicans; assay: Antifungal activity against fluconazole-resistant Candida albicans 103 assessed as inhibition of visible microbe growth by broth microdilution method; format: functional
[14] = system: A549; assay: Cytotoxicity in human A549 cells assessed as reduction in cell viability incubated for 24 hrs by MTT assay; format: cell-based; conditions: A549, 24 h

In the case of `CC(C)COC(=O)[C@H](Cn1ccnc1)NC(=O)c1ccc(-c2ccccc2)cc1F`, the MIC [1] is reported as 0.0312 µg/mL, the MIC [2] is reported as > 16 µg/mL and the MIC [3] is reported as 8 µg/mL. It also gave an MIC [4] of 0.0312 µg/mL and an MIC [5] of 0.25 µg/mL.
`CC(C)OC(=O)[C@H](Cn1ccnc1)NC(=O)c1ccc(-c2ccccc2)c(Cl)c1` was tested, and the MIC [1] was 1 µg/mL, the MIC [2] was 8 µg/mL and the MIC [3] was > 16 µg/mL. It also gave an MIC [4] of 8 µg/mL and an MIC [5] of 8 µg/mL.
`CC(C)OC(=O)[C@H](Cn1ccnc1)NC(=O)c1ccc(-c2ccccc2)c(F)c1` was tested, and the MIC [1] was 0.0312 µg/mL, the MIC [2] was 8 µg/mL and the IC50 [6] was > 50 µM. The MIC [3] was 2 µg/mL, the IC50 [7] was 4.05 µM and the IC50 [8] was > 50 µM. For the same molecule, the IC50 [9] was > 50 µM, the MIC [10] was 8 µg/mL and the IC50 [11] was 43.4 µM. The IC50 [12] was > 50 µM, the MIC [13] was 2 µg/mL and the IC50 [14] was > 50 µM. It also gave an MIC [4] of 0.0312 µg/mL and an MIC [5] of 0.5 µg/mL.
For `CC(C)OC(=O)[C@H](Cn1ccnc1)NC(=O)c1c(F)cc(-c2ccccc2)cc1F`, the MIC [1] was 0.5 µg/mL, the MIC [2] was > 16 µg/mL and the MIC [3] was > 16 µg/mL. The MIC [4] was 2 µg/mL and the MIC [5] was 0.5 µg/mL.
In the case of `CC(C)COC(=O)[C@H](Cn1ccnc1)NC(=O)c1ccc(-c2ccccc2F)c(F)c1`, the MIC [1] is reported as 0.0625 µg/mL, the MIC [2] is reported as > 16 µg/mL and the MIC [3] is reported as > 16 µg/mL. For the same molecule, the MIC [10] was 8 µg/mL, the MIC [13] was 4 µg/mL and the MIC [4] was 0.0625 µg/mL. The MIC [5] was 0.25 µg/mL.
With `CC(C)OC(=O)[C@H](Cn1ccnc1)NC(=O)c1ccc(-c2ccccc2F)c(F)c1` the MIC [1] was 0.0312 µg/mL, the MIC [2] was 8 µg/mL and the MIC [3] was > 16 µg/mL. For the same molecule, the MIC [10] was 16 µg/mL, the MIC [13] was 2 µg/mL and the MIC [4] was 0.0312 µg/mL. It also gave an MIC [5] of 0.0625 µg/mL.
`CC(C)COC(=O)[C@H](Cn1ccnc1)NC(=O)c1ccc(-c2ccccc2)c(F)c1` was tested, and the MIC [1] was 0.0312 µg/mL, the MIC [2] was > 16 µg/mL and the MIC [3] was 4 µg/mL. For the same molecule, the MIC [4] was 0.0312 µg/mL and the MIC [5] was 0.25 µg/mL.
With `COc1cc(-c2ccccc2)ccc1C(=O)N[C@@H](Cn1ccnc1)C(=O)OC(C)C` the MIC [1] was 1 µg/mL, the MIC [2] was > 16 µg/mL and the MIC [3] was > 16 µg/mL. The MIC [4] was 1 µg/mL and the MIC [5] was 8 µg/mL.
In the case of `Cc1cc(-c2ccccc2)ccc1C(=O)N[C@@H](Cn1ccnc1)C(=O)OCC(C)C`, the MIC [1] is reported as 0.5 µg/mL, the MIC [2] is reported as > 16 µg/mL and the MIC [3] is reported as > 16 µg/mL. For the same molecule, the MIC [4] was 2 µg/mL and the MIC [5] was > 16 µg/mL.
For `Cc1cc(-c2ccccc2)ccc1C(=O)N[C@@H](Cn1ccnc1)C(=O)OC(C)C`, the MIC [1] was 0.5 µg/mL, the MIC [2] was > 16 µg/mL and the MIC [3] was > 16 µg/mL. For the same molecule, the MIC [4] was 2 µg/mL and the MIC [5] was > 16 µg/mL.
For `CC(C)OC(=O)[C@H](Cn1ccnc1)NC(=O)c1ccc(-c2ccccc2F)cc1F`, the MIC [1] was 0.25 µg/mL, the MIC [2] was > 16 µg/mL and the MIC [3] was > 16 µg/mL. For the same molecule, the MIC [4] was 0.125 µg/mL and the MIC [5] was 0.5 µg/mL.
`CC(C)OC(=O)[C@H](Cn1ccnc1)NC(=O)c1ccc(-c2ccc(C#N)cc2)cc1F` was tested, and the MIC [1] was 2 µg/mL, the MIC [2] was > 16 µg/mL and the MIC [3] was > 16 µg/mL. The MIC [4] was 4 µg/mL and the MIC [5] was 8 µg/mL.
With `CC(C)OC(=O)[C@H](Cn1ccnc1)NC(=O)c1ccc(-c2ccccc2)cc1Cl` the MIC [1] was 0.5 µg/mL, the MIC [2] was 8 µg/mL and the MIC [3] was > 16 µg/mL. It also gave an MIC [4] of 8 µg/mL and an MIC [5] of 4 µg/mL.
For `CC(C)COC(=O)[C@H](Cn1ccnc1)NC(=O)c1ccc(-c2ccccc2)c(Cl)c1`, the MIC [1] was 0.25 µg/mL, the MIC [2] was 8 µg/mL and the MIC [3] was > 16 µg/mL. It also gave an MIC [4] of 8 µg/mL and an MIC [5] of 4 µg/mL.
For `CC(C)OC(=O)[C@H](Cn1ccnc1)NC(=O)c1ccc(-c2ccccc2)cc1F`, the MIC [1] was 0.0312 µg/mL, the MIC [2] was > 16 µg/mL and the IC50 [6] was 4.49 µM. The MIC [3] was 4 µg/mL, the IC50 [7] was 0.0429 µM and the IC50 [8] was > 50 µM. It also gave an IC50 [9] of 19.1 µM, an MIC [10] of 16 µg/mL and an IC50 [11] of 7.44 µM. For the same molecule, the IC50 [12] was > 50 µM, the MIC [13] was 4 µg/mL and the IC50 [14] was > 50 µM. The MIC [4] was 0.0312 µg/mL and the MIC [5] was 0.25 µg/mL.
`CC(C)COC(=O)[C@H](Cn1ccnc1)NC(=O)c1ccc(-c2ccc(C#N)cc2)cc1F` was tested, and the MIC [1] was 0.5 µg/mL, the MIC [2] was > 16 µg/mL and the MIC [3] was > 16 µg/mL. The MIC [4] was > 16 µg/mL and the MIC [5] was > 16 µg/mL.
In the case of `Cc1cc(C(=O)N[C@@H](Cn2ccnc2)C(=O)OC(C)C)ccc1-c1ccccc1`, the MIC [1] is reported as 8 µg/mL, the MIC [2] is reported as > 16 µg/mL and the MIC [3] is reported as > 16 µg/mL. For the same molecule, the MIC [4] was > 16 µg/mL and the MIC [5] was > 16 µg/mL.
In the case of `CC(C)COC(=O)[C@H](Cn1ccnc1)NC(=O)c1ccc(-c2ccccc2)cc1Cl`, the MIC [1] is reported as 0.25 µg/mL, the MIC [2] is reported as 8 µg/mL and the MIC [3] is reported as > 16 µg/mL. The MIC [4] was 8 µg/mL and the MIC [5] was 4 µg/mL.
In the case of `Cc1cc(C(=O)N[C@@H](Cn2ccnc2)C(=O)OCC(C)C)ccc1-c1ccccc1`, the MIC [1] is reported as 4 µg/mL, the MIC [2] is reported as > 16 µg/mL and the MIC [3] is reported as > 16 µg/mL. The MIC [4] was > 16 µg/mL and the MIC [5] was > 16 µg/mL.
In the case of `CC(C)COC(=O)[C@H](Cn1ccnc1)NC(=O)c1ccc(-c2ccccc2F)cc1F`, the MIC [1] is reported as 0.25 µg/mL, the MIC [2] is reported as > 16 µg/mL and the MIC [3] is reported as > 16 µg/mL. For the same molecule, the MIC [4] was 0.125 µg/mL and the MIC [5] was 0.5 µg/mL.
`COc1cc(-c2ccccc2)ccc1C(=O)N[C@@H](Cn1ccnc1)C(=O)OCC(C)C` was tested, and the MIC [1] was 2 µg/mL, the MIC [2] was > 16 µg/mL and the MIC [3] was > 16 µg/mL. For the same molecule, the MIC [4] was 4 µg/mL and the MIC [5] was > 16 µg/mL.
For `CC(C)COC(=O)[C@H](Cn1ccnc1)NC(=O)c1c(F)cc(-c2ccccc2)cc1F`, the MIC [1] was 2 µg/mL, the MIC [2] was > 16 µg/mL and the MIC [3] was > 16 µg/mL. It also gave an MIC [4] of 2 µg/mL and an MIC [5] of 0.5 µg/mL.
With `OC(Cn1cncn1)(Cn1cncn1)c1ccc(F)cc1F` [FLUCONAZOLE] the MIC [1] was 1 µg/mL, the MIC [2] was 4 µg/mL and the MIC [3] was > 16 µg/mL. The MIC [10] was > 64 µg/mL, the MIC [13] was > 64 µg/mL and the MIC [4] was 1 µg/mL. For the same molecule, the MIC [5] was 0.5 µg/mL.
Work on `CCC(C)n1ncn(-c2ccc(N3CCN(c4ccc(OCC5COC(Cn6cncn6)(c6ccc(Cl)cc6Cl)O5)cc4)CC3)cc2)c1=O` (centres undefined) [ITRACONAZOLE] yielded an MIC [1] of 0.5 µg/mL, an MIC [2] of 1 µg/mL and an MIC [3] of 4 µg/mL. The MIC [4] was 0.25 µg/mL and the MIC [5] was 0.0625 µg/mL.
